Our source for the melting point values is patent publication US7569570B2, “Thienopyrimidines, process for preparing the same and use thereof” (Takeda Pharmaceutical Company Limited, priority 2002, dated 2009).

One may read the melting point as the temperature, or range, at which the solid turns liquid.

The compound `CCNC(=O)Nc1ccc(-c2sc3c(c2CN(C)CCC(=O)NCCOC)c(=O)n(-c2ccccc2)c(=O)n3Cc2c(F)cccc2F)cc1` [Example 95, 3-[{[1-(2,6-difluorobenzyl)-6-(4-{[(ethylamino)carbonyl]amino}phenyl)-2,4-dioxo-3-phenyl-1,2,3,4-tetrahydrothieno[2,3-d]pyrimidin-5-yl]methyl}(methyl)amino]-N-(2-methoxyethyl)propanamide] showed a melting point of 240 to 244 °C. On to `CCNC(=O)Nc1ccc(-c2sc3c(c2CN(C)C[C@H]2CCCN2S(C)(=O)=O)c(=O)n(-c2ccccc2)c(=O)n3Cc2c(F)cccc2F)cc1` [Example 85], for which the melting point lay within 189 to 190 °C.

The compound `CCNC(=O)Nc1ccc(-c2sc3c(c2CN(C)Cc2ccccn2)c(=O)n(-c2ccc(F)cc2)c(=O)n3Cc2c(F)cccc2F)cc1` [Example 114] registered a melting point of 243 to 244 °C.

Turning to `CCNC(=O)Nc1ccc(-c2sc3c(c2CN(C)CCN(C)S(C)(=O)=O)c(=O)n(-c2ccc(F)cc2)c(=O)n3Cc2c(F)cccc2F)cc1` [Example 37, N-{2-[{[1-(2,6-difluorobenzyl)-6-(4-{[(ethylamino)carbonyl]amino}phenyl)-3-(4-fluorophenyl)-2,4-dioxo-1,2,3,4-tetrahydrothieno[2,3-d]pyrimidin-5-yl]methyl}(methyl)amino]ethyl}-N-methylsulfonamide], the melting point lay within 228 to 230 °C. For `CCNC(=O)Nc1ccc(-c2sc3c(c2CNCCOCC)c(=O)n(-c2ccccc2)c(=O)n3Cc2c(F)cccc2F)cc1` [Example 3] the value was 211 to 213 °C; for `CCNC(=O)Nc1ccc(-c2sc3c(c2CN(C)CCOC)c(=O)n(-c2ccc(OCCOC)c(OCCOC)c2)c(=O)n3Cc2c(F)cccc2F)cc1` [Example 105], 222 to 225 °C; for `CCNC(=O)Nc1ccc(-c2sc3c(c2CN(C)CCOC)c(=O)n(-c2ccc(O)cc2)c(=O)n3Cc2c(F)cccc2F)cc1` [Example 103], 260 to 265 °C. The figure for `CCNC(=O)Nc1ccc(-c2sc3c(c2CN(C)CCN(C)C(C)=O)c(=O)n(-c2ccccc2)c(=O)n3Cc2c(F)cccc2F)cc1` [Example 27, N-{2-[{[1-(2,6-difluorobenzyl)-6-(4-{[(ethylamino)carbonyl]amino}phenyl)-2,4-dioxo-3-phenyl-1,2,3,4-tetrahydrothieno[2,3-d]pyrimidin-5-yl]methyl}(methyl)amino]ethyl}-N-methylacetamide] is 180 to 181 °C; for `CCNC(=O)Nc1ccc(-c2sc3c(c2CN(C)CCCC(=O)N(C)C)c(=O)n(-c2ccccc2)c(=O)n3Cc2c(F)cccc2F)cc1` [Example 18, 4-[{[1-(2,6-difluorobenzyl)-6-(4-{[(ethylamino)carbonyl]amino}phenyl)-2,4-dioxo-3-phenyl-1,2,3,4-tetrahydrothieno[2,3-d]pyrimidin-5-yl]methyl}(methyl)amino]-N,N-dimethylbutane amide] it is 191 to 193 °C; for `CCNC(=O)Nc1ccc(-c2sc3c(c2CNCCOC)c(=O)n(-c2ccccc2)c(=O)n3Cc2c(F)cccc2F)cc1` [Example 2, N-[4-(1-(2,6-difluorobenzyl)-5-{[(2-methoxyethyl)amino]methyl}-2,4-dioxo-3-phenyl-1,2,3,4-tetrahydrothieno[2,3-d]pyrimidin-6-yl)phenyl]-N′-ethylurea] it is 221 to 223 °C. `CCNC(=O)Nc1ccc(-c2sc3c(c2CN(C)C(C)C)c(=O)n(-c2ccccc2)c(=O)n3Cc2c(F)cccc2F)cc1` [Example 92, N-[4-(1-(2,6-difluorobenzyl)-5-{[isopropyl (methyl)amino]methyl}-2,4-dioxo-3-phenyl-1,2,3,4-tetrahydrothieno[2,3-d]pyrimidin-6-yl)phenyl]-N′-ethylurea] had a melting point of 208 to 210 °C.

Turning to `CCNC(=O)Nc1ccc(-c2sc3c(c2CN(C)CCC(=O)N(C)C)c(=O)n(-c2ccc(OCCOC)cc2)c(=O)n3Cc2c(F)cccc2F)cc1` [Example 100, 3-[({1-2,6-(difluorobenzyl)-6-(4-{[(ethylamino)carbonyl]amino}phenyl)-3-[4-(2-methoxyethoxy)phenyl]-2,4-dioxo-1,2,3,4-tetrahydrothieno[2,3-d]pyrimidin-5-yl)methyl)(methyl)amino)-N,N-dimethylpropanamide], the melting point lay within 215 to 218 °C. For `CCNC(=O)Nc1ccc(-c2sc3c(c2CN(C)CCOCCOC)c(=O)n(-c2ccccc2)c(=O)n3Cc2c(F)cccc2F)cc1` [Example 109, N-[4-(1-(2,6-difluorobenzyl)-5-{[[2-(2-methoxyethoxy)ethyl](methyl)amino]methyl}-2,4-dioxo-3 phenyl-1,2,3,4-tetrahydrothieno[2,3-d]pyrimidin-6-yl)phenyl]-N′-ethylurea] the value was 228 to 231 °C. The figure for `CCNC(=O)Nc1ccc(-c2sc3c(c2CN(C)CCN2CCCC2=O)c(=O)n(-c2ccc(F)cc2)c(=O)n3Cc2c(F)cccc2F)cc1` [Example 33] is 204 to 206 °C; for `CCNC(=O)Nc1ccc(-c2sc3c(c2CN(C)CCC(=O)N(C)C)c(=O)n(-c2ccc(F)cc2)c(=O)n3Cc2c(F)cccc2F)cc1` [Example 32] it is 210 to 212 °C; for `CCNC(=O)Nc1ccc(-c2sc3c(c2CN(C)C2CCCCC2)c(=O)n(-c2ccccc2)c(=O)n3Cc2c(F)cccc2F)cc1` [Example 91, N-{4-[5-{[cyclohexyl(methyl)amino]methyl}-1-(2,6-difluorobenzyl)-2,4-dioxo-3-phenyl-1,2,3,4-tetrahydrothieno[2,3-d]pyrimidin-6-yl]phenyl}-N′-ethylurea] it is 210 to 212 °C.

Compound `CCNC(=O)Nc1ccc(-c2sc3c(c2CN(C)CCC(=O)N(C)C)c(=O)n(-c2ccccc2)c(=O)n3Cc2c(F)cccc2F)cc1` [Example 10, 3-[{[1-(2,6-difluorobenzyl)-6-(4-{[(ethylamino)carbonyl]amino}phenyl)-2,4-dioxo-3-phenyl-1,2,3,4-tetrahydrothieno[2,3-d]pyrimidin-5-yl]methyl}(methyl)amino]-N,N-dimethylpropanamide] displayed a melting point of 236 to 237 °C. For `CCNC(=O)Nc1ccc(-c2sc3c(c2CN(C)CCOC)c(=O)n(-c2ccc(OCCOC)c(OCCOC)c2)c(=O)n3Cc2c(F)cccc2F)cc1` [Example 101, N-[4-(3-[3,4-bis(2-methoxyethoxy)phenyl]-1-(2,6-difluorobenzyl)-5-{[(2-methoxyethyl)(methyl)amino]methyl}-2,4-dioxo-1,2,3,4-tetrahydrothieno[2,3-d]pyrimidin-6-yl)phenyl]-N′-ethylurea] the value was 206 to 208 °C. In the case of `CCNC(=O)Nc1ccc(-c2sc3c(c2CN(C)CCNC)c(=O)n(-c2ccccc2)c(=O)n3Cc2c(F)cccc2F)cc1` [Example 26, N-{4-[1-(2,6-difluorobenzyl)-5-({methyl[2-(methylamino)ethyl]amino}methyl)-2,4-dioxo-3-phenyl-1,2,3,4-tetrahydrothieno[2,3-d]pyrimidin-6-yl)phenyl}-N′-ethylurea], the melting point was 192 to 193 °C. The figure for `CCNC(=O)Nc1ccc(-c2sc3c(c2CN(C)CCOC)c(=O)n(-c2ccc(NC(=O)NCC)cc2)c(=O)n3Cc2c(F)cccc2F)cc1` [Example 99, N-[4-(3-(4-{(ethylamino)carbonylamino}phenyl)-1-(2,6-difluorobenzyl)-5-{[2-methoxyethyl(methyl)amino]methyl}-2,4-dioxo-1,2,3,4-tetrahydrothieno[2,3-d]pyrimidin-6-yl)phenyl]-N′-ethylurea] is 236 to 239 °C.
